Experimental data as given in patent US20120258975A1, “Potent Small Molecule Inhibitors of Autophagy, and Methods of Use Thereof” (Shanghai Institute of Organic Chemistry, priority 2009, published 2012).

Experiments:
MDCK cells = MDCK cells under glucose-free condition; format: cell-based, canine
From the text: (§1) Hs578Bst cells, established from normal tissue peripheral to the tumor and is myoepithelial in origin, also were not sensitive to spautin (FIGS. 12C and 12D).

Hs578Bst cells = test: Hs578Bst cells; format: cell-based
Experimental: A-B, MDCK cells were treated with DMSO (1‰) and spautin at indicated concentration in DMEM with or without glucose for 24 h. […] C-D, Hs578Bst cells were treated with DMSO (1‰) and C43 as indicated concentration in DMEM with or without glucose for 24 h.
as §1

Bcap-37 cells = test: Bcap-37 cells, normal and glucose free condition; format: cell-based
Experimental: (§2) FIG. 11 depicts results showing that selected cancer cell lines are sensitive to MBCQ and its active derivatives under glucose free condition. BT549 cells were treated with indicated concentrations of C43 for 24 h in normal DMEM (A) or under serum free condition (B). The cell viability was assayed by MTT or harvested for western blotting assay with anti-LC3 (C). MCF-7 cells were treated with DMSO (1‰), C43 (10 μM) in DMEM with (D) or without (E) glucose, for 12 h. The cell viability was assayed by MTT or images (F). […] Bcap-37 cells were treated with indicated concentrations of C43 for 24 h in normal DMEM (H) or under serum free condition (I). The cell viability was assayed by MTT or images (J) And the cell lysates treated with C43 for indicated time were analyzed by western blotting using anti-PARP (L) or anti-LC3 (M) and α-tubulin was used as a loading control. (K) Cell cycle profile of Bcap-37 treated with C43. Bcap-37 cells were treated with DMSO (0.1%) (left figure), C43 (10 μM) (right figure) for 12 h. The cells were then fixed with 70% ethanol, stained with propidium iodide (PI, 40 μg/mL) and treated with RNase enzyme (200 μg/mL) solution for 30 min in dark. Cell cycle profile and possible apoptotic death were statistics analyzed by flow cytometer.
To explore the mechanism by which C43 induces the death of Bcap-37 cells, the DNA content was analyzed by FACS.

Beclin1 = test: Ubiquitination of Beclin1 in 293T cells; format: cell-based
Experimental: FIG. 16 depicts results of experiments showing that spautin promotes the degradation of Beclin1 through proteasomal pathway. […] DMSO (1‰), MBCQ (10 μM), spautin (10 μM), NH4Cl (10 mM), MG132 (5 μM). […] B, 293T cells were transfected with GFP-Beclin1 and HA-Ub expression vectors.
Ubiquitination represents an essential key step in mediating proteasomal degradation. Experiments were therefore run to determine if ubiquitination of Beclin1 is increased in cells treated with C43.

MCF-7 cells = MCF-7 cells under glucose-free condition; format: cell-based
Experimental: as §2, with “cytometer. […]” for “cytometer.”

LC3 = LC3 western blotting in MEF cells; format: cell-based, mouse; settings: 4 hours, 10 μM, rapamycin 0.2 μM
Experimental: FIG. 5 depicts results related to showing that active derivatives of MBCQ reduce the levels of LC3II in MEF cells. […] The cell lysates were collected for western blotting using anti-LC3 antibody. B, Electron microscopy confirmation of the autophagy inhibitory effects of C43 (spautin) on MEF cells. MEF cells were treated with vehicle control (1‰ DMSO), and other indicated compounds for 4 h. Rapamycin (0.2 μM) and C43 (spautin) (10 μM). Then the cells were fixed with glutaraldehyde and prepared the sample for EM assay. Bar, 1:11,000. Arrows indicate double and multi-membrane autophagosomic vesicles. N: nucleus.
To confirm the inhibitory activity on autophagy, mouse embryo fibroblasts (MEF) cells were treated with C29, C43 or C71 for 4 hours in the presence or absence of rapamycin and the levels of autophagy were determined by LC3 western blotting. […] (FIG. 5A).

[1] = biological target: USP10 and USP13 interaction (Homo sapiens, UniProt Q14694+Q92995); test: GFP-USP10 / Myc-USP13 co-immunoprecipitation in 293T cells
H4 cells [2] = test: H4 cell growth and cell cycle; format: cell-based; settings: 5 μM for 24 h and 48 h
Experimental: FIG. 6 depicts results showing that MBCQ has little effect on H4 cell growth. A, H4 cells were treated with MBCQ (5 μM) for 5 days and harvested daily for cell number counting in the presence of trypan blue; B, H4 cells were treated with MBCQ (5 μM) for 24 h and 48 h, and then cells were fixed with 70% ethanol, stained with propidium iodide (40 μg/mL) and incubated with RNase (200 μg/mL solution for 30 min. The cell cycle profile and possible apoptotic cell death were analyzed by flow cytometer.
To characterize the effect of MBCQ on cellular activity, the effect of MBCQ on cell survival and cell cycle was determined as outlined below. H4 cells were treated with MBCQ (5 μM) for 5 days and harvested daily for cell number counting in the presence of trypan blue. […] The cell cycle profile and possible apoptotic cells in H4 cells treated with MBCQ (5 μM) for 24 h and 48 h was also determined.

mTOR pathway = test: Western blotting of mTOR pathway phosphorylation; format: cell-based
From the text: Since MBCQ inhibits autophagy induced by rapamycin and starvation, it was first determined if MBCQ affects the activity of mTOR. […] Thus, it was concluded that MBCQ has no effect for the mTOR pathway or type I PI3 kinase.

H4 cells [3] = test: Electron microscopy of H4 cells; format: cell-based
Experimental: FIG. 3 depicts electron microscopy analysis of the effect of MBCQ on autophagy. H4 cells were treated with 0.1% DMSO (vehicle), rapamycin (0.2 μM), MBCQ (10 μM), or MBCQ and rapamycin for 4 h. The cells were processed and imaged by EM.
The ultra-structure of cells treated with rapamycin was determined in the presence or absence of MBCQ. […] Treatment of rapamycin led to the formation of a large numbers of autophagosomes with characteristic double membrane.

USP10 and USP13 interaction, sequence (Q14694 whole entry): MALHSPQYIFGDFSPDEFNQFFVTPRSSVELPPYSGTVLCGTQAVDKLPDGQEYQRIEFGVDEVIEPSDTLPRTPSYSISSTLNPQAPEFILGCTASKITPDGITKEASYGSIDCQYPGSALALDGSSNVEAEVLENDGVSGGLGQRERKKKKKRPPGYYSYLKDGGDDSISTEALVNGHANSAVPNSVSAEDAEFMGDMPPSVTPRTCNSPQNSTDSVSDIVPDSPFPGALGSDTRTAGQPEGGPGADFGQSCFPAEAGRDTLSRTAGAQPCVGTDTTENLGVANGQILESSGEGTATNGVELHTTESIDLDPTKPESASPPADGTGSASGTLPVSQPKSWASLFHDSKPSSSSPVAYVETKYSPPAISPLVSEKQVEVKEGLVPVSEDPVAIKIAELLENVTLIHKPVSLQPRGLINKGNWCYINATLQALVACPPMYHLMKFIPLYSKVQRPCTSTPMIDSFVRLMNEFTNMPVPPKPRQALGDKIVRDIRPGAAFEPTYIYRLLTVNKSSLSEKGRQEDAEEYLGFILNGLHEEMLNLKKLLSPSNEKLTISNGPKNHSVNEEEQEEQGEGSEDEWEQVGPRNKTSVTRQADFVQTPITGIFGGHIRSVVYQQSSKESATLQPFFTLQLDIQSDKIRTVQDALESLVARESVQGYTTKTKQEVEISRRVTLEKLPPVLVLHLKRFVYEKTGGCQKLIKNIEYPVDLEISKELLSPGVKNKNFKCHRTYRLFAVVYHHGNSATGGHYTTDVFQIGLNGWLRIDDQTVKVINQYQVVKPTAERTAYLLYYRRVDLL
USP10 and USP13 interaction, sequence (Q92995 whole entry): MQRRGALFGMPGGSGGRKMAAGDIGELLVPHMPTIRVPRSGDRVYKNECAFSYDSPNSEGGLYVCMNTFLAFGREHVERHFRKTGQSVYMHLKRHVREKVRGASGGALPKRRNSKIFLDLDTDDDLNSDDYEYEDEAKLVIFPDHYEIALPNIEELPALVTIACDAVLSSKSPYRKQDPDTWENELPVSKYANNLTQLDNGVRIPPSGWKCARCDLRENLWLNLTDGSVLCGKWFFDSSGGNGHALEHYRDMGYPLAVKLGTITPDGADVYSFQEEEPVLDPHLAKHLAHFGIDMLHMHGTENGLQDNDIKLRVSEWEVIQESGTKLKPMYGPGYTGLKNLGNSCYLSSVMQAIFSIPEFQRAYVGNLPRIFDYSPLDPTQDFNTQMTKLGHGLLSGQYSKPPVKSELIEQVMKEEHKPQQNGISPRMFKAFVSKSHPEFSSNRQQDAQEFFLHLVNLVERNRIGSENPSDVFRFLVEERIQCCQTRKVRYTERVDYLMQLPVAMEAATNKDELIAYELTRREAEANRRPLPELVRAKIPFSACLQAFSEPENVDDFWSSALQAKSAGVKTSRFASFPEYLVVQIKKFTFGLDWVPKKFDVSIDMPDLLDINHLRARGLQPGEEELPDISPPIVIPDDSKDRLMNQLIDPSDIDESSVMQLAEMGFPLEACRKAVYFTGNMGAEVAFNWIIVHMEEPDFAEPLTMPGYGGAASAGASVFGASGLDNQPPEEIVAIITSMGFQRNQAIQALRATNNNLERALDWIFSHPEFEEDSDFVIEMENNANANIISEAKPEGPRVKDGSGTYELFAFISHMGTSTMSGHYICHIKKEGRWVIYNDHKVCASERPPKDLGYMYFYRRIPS

Row | Structure (SMILES) | apoptosis (MDCK cells) | growth suppression (MDCK cells; 10 μM of spautin for 48 hrs) [%] | sensitivity of cells to compound (Hs578Bst cells) | autophagy (western blot) (Bcap-37 cells; basal and glucose-free conditions) | sensitivity of cells to compound (Bcap-37 cells; glucose free condition) | DNA content by FACS (Bcap-37 cells; glucose-free condition) | proliferation (Bcap-37 cells; in the presence of 10% bovine serum) | ubiquitination of Beclin1 (Beclin1) | autophagy (western blot, LC3) (MCF-7 cells; basal and glucose-free condition) | cell survival (MCF-7 cells; glucose-free condition) | autophagy induced by rapamycin (LC3 western blotting) (LC3) | GFP-USP10 and Myc-USP13 interaction [1] | cell cycle distribution (H4 cells [2]) | phosphorylation of GSK-3α/β, AKT (mTOR pathway) | phosphorylation of mTOR and its targets, p70S6K and S6 (mTOR pathway; control or rapamycin treated cells) | cell morphology (H4 cells [3]; MBCQ alone for 4 h) | double membrane autophagosomes (H4 cells [3]; rapamycin (0.2 μM) and MBCQ (10 μM) together, 4 h)
1 | Fc1ccc(CNc2ncnc3ccc(F)cc23)cc1 [C43, 6-fluoro-N-(4-fluorobenzyl)quinazolin-4-amine] | did not induce apoptosis | ~25 | not sensitive | inhibited autophagy | highly sensitive | induced a peak of sub-diploid DNA | inhibited the proliferation | promoted the ubiquitination of Beclin1 | inhibited autophagy | reduced the survival | inhibited autophagy induced by rapamycin | the interaction was inhibited | – | – | – | – | –
2 | Clc1ccc2ncnc(NCc3ccc4c(c3)OCO4)c2c1 [MBCQ] | – | – | – | – | – | – | – | – | – | – | – | – | no detectable effect on cell cycle distribution | Nor does MBCQ have any effect | no effect on the phosphorylation of mTOR and its targets | morphologically similar to that control | conspicuously absent
